Results on two compounds are retold here after ChEMBL document CHEMBL5154820 (Eur J Med Chem, 2022).

For one data set, the species on record is Bos taurus. The experiment in a line: Inhibition of calf brain tubulin polymerization upto 50 uM measured after 40 mins by spectrophotometric analysis. The settings on record: DDE = dose-dependent effect.
The test system of data set [1] is HeLa. The experiment in a line: Induction of apoptosis in human HeLa cells assessed as viable cells at 6 nM measured after 24 hrs by Annexin V-FITC/7-AAD staining based flow cytometric analysis (reference value: 75.5%). The data set is classed as functional. As to conditions: read-out: Activity. For orientation: A flow cytometer gives signals particle by particle.

Data set [2] has as its system HeLa. The data set can be described thus: Induction of cell cycle arrest in human HeLa cells assessed as S-phase at 1.5 nM measured after 24 hrs by propidium iodide staining based flow cytometric analysis analysis ( Rvb = 23.4%). It counts as functional.
The subject of data set [3] is HeLa. The data set can be described thus: Induction of cell cycle arrest in human HeLa cells assessed as S-phase at 6 nM measured after 24 hrs by propidium iodide staining based flow cytometric analysis analysis ( Rvb = 23.4%). It counts as functional.
Data set [4] is described as follows: AUC(0 to infinity) in C57 nude mouse plasma at 30 mg/kg, ip measured at 0.083 to 24 hrs by LC/MS/MS analysis. The data set is classed as ADME, organism-based. More on the design: time lower 0.083 hrs, dose 30 mg/kg, time upper 24 hrs, route ip.
Data set [5] in a line: Acute toxicity in ICR mouse assessed as median lethal dose administered intraperitoneally upto 14 days. As to conditions: in vivo, route ip, time < 14 day.
For data set [6], the system named is HeLa. The data set can be described thus: Antitumor activity against human HeLa cells xenografted in BABL/c mouse assessed as tumor growth inhibition at 30 mg/kg, ip administered daily for 21 days followed by addition of 3 mg/kg DDP for every 2 days relative to control. It counts as functional. As to conditions: 504 h, time 21 day, read-out: TGI. In general terms: In xenograft studies the graft and the host belong to different species.

For another data set, the system named is SiHa. The data set can be described thus: Potency index, ratio of cisplatin IC50 to test compound IC50 for cytotoxicity against human DDP resistant SiHa cells. It counts as functional.
Data set [7] deals with Tubulin beta (Homo sapiens) (UniProt P68371+Q9H4B7+Q13509+P04350+Q3ZCM7+P07437+Q13885+Q9BVA1+Q9BUF5+A6NNZ2). The data set can be described thus: Binding affinity to beta-tubulin colchicine binding site in human HeLa cells assessed as decrease of adduct formation by measuring gray value measured at 100 uM incubated for 2 hrs followed by addition of EBI measured after 1.5 hrs by EBI competition based Western blotting analysis. It counts as cell-based. As to conditions: time 3.5 hrs.

Data set [8] is described as follows: Tmax in C57 nude mouse at 30 mg/kg, ip measured at 0.083 to 24 hrs by LC/MS/MS analysis. It counts as ADME, organism-based. As to conditions: in vivo, time 0.083-24 hrs.
Data set [9] deals with HeLa. The data set can be described thus: Induction of cell cycle arrest in human HeLa cells assessed as >4N cells at 0.1 uM measured after 24 hrs by propidium iodide staining based flow cytometric analysis analysis ( Rvb = 8.84%). The data set is classed as functional.
A short description of data set [10]: Nephrotoxicity in BABL/c mouse assessed as increased urea nitrogen level at 30 mg/kg, ip administered daily for 21 days relative to vehicle. It counts as toxicity, organism-based. The settings on record: in vivo, 504 h, time 21 day.
A short description of data set [11]: Toxicity against BABL/c mouse assessed as glomerular crescent hyperplasia in kidney at 60 mg/kg, ip administered daily for 21 days by H and E staining method. It counts as organism-based. The settings on record: in vivo, 504 h, time 21 day.
Data set [12] can be described thus: Acute toxicity against ICR mouse assessed as chronic progressive nephropathy in kidney at 1000 mg/kg, ip measured after 14 days by H and E staining method. The data set is classed as organism-based. The settings on record: in vivo, 336 h, time 14 day.
For data set [13], the system named is HeLa. The experiment in a line: Induction of cell cycle arrest in human HeLa cells assessed as 4N cells at 0.4 uM measured after 24 hrs by propidium iodide staining based flow cytometric analysis analysis ( Rvb = 20.3%). The data set is classed as functional.
Data set [14] concerns HeLa. The data set can be described thus: Induction of cell cycle arrest in human HeLa cells assessed as 2N cells at 0.4 uM measured after 24 hrs by propidium iodide staining based flow cytometric analysis analysis ( Rvb = 47.4%). It counts as functional.
The target of data set [15] is Voltage-gated inwardly rectifying potassium channel KCNH2 (Homo sapiens, UniProt Q12809). The data set can be described thus: Inhibition of human ERG expressed in CHO cells with holding potential of -80 mV by whole cell patch clamp assay. The data set is classed as toxicity, cell-based. For orientation: The patch-clamp technique gives a direct electrical read-out from membranes.

The subject of data set [16] is HeLa. The data set can be described thus: Induction of cell cycle arrest in human HeLa cells assessed as 4N cells at 0.1 uM measured after 24 hrs by propidium iodide staining based flow cytometric analysis analysis ( Rvb = 20.3%). It counts as functional.
Data set [17] has as its system HeLa. The data set can be described thus: Antitumor activity against human HeLa cells xenografted in BABL/c mouse assessed assessed as reduction in tumor volume at 30 mg/kg, ip administered daily for 21 days and measured every 3 days ( Rvb = 2336 mm3). As to conditions: time 21 day. The data set is classed as functional.
The next data set has as its target hERG (KCNH2) (Homo sapiens, UniProt Q12809). The data set can be described thus: Inhibition of human ERG expressed in CHO cells at 40 uM with holding potential of -80 mV by whole cell patch clamp assay relative to control. It counts as toxicity, cell-based. As to conditions: CHO cells that express hERG.
Data set [18] can be described thus: Resistant factor, ratio of IC50 for antiproliferative activity against human SiHa/DDP cells to IC50 for human SiHa cells. It counts as functional.

Chain of hERG (KCNH2) (Q12809 whole entry): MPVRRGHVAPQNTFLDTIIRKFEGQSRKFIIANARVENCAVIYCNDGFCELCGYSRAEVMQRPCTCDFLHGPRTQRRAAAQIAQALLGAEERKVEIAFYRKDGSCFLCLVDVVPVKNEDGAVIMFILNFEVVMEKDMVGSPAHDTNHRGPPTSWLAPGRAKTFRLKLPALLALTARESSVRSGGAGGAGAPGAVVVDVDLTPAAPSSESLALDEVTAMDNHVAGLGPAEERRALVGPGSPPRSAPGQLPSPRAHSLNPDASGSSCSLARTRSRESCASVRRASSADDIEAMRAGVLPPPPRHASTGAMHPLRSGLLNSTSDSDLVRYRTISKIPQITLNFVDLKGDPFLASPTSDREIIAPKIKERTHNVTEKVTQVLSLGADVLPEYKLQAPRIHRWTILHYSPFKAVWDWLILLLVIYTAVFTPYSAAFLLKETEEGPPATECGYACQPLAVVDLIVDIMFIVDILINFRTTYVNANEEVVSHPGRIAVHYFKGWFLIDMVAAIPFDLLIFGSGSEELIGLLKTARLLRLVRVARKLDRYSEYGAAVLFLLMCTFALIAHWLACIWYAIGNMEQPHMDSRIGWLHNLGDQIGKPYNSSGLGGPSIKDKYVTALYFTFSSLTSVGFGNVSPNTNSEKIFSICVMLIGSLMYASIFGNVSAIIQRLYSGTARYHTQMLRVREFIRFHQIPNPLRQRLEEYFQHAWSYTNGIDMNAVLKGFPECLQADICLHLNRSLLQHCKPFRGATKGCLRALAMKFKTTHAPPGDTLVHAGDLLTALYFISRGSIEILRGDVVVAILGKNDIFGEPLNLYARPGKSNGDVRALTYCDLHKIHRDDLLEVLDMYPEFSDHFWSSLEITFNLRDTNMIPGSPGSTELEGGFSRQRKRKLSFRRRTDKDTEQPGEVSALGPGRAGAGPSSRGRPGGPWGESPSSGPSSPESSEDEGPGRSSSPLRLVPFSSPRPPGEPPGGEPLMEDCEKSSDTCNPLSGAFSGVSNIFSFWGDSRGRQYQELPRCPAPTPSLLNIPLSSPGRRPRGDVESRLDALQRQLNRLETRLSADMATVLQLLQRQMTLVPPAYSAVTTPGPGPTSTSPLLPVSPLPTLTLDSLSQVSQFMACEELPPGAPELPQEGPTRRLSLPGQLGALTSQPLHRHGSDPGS
Chain of Voltage-gated inwardly rectifying potassium channel KCNH2 (Q12809 whole entry): as above

As usually defined, the inhibition is the change of the read-out against control, counted positive when it falls. `COc1ccc(/C=C\c2cc(OC)c(OC)c(OC)c2)cc1O` [COMBRETASTATIN A4]: the inhibition entry in the data set listed under Bos taurus is “Dde”. Also, the viability at 0.006 µM in the data set with HeLa [1] came out at 19.2%. Besides, the values for the Activity with HeLa [2] and in the data set with HeLa [3] were 12% and 15.9%, respectively.
In general, AUC(0-inf) refers to the area under the concentration-time curve extrapolated to infinity. For orientation: LD50 means the dose expected to kill half of the subjects tested. A word on the Tmax: it is the time at which the peak concentration occurs. The IC50 is the concentration that gives 50% inhibition. In data set [4], `CCOc1ccc(-c2cncnc2-c2cc(OC)c(OC)c(OC)c2)cc1Cl` had an AUC(0-inf) of 5940 ng·h/mL. In addition, the median lethal dose (LD50) at 336 h in data set [5] came out at 1000 mg/kg. Also, in the data set with HeLa [6], the inhibition in vivo at 30 mg/kg was 73%. In addition, the “Ratio IC50” value is listed as 2.7 in the data set with SiHa and 41.9 in [18]. In addition, the Activity in data set [7] was 2; with HeLa [9] it was 21.6%; in data set [10], 1.3%; in [11], “Toxic”; in data set [12], “Non-Toxic”; in the data set with HeLa [13], 71.7%. Further, the Activity turned out to be 7.03% in the data set on HeLa [14], 24.7% in the data set on HeLa [16] and 1578 mm3 in the data set with HeLa [17]. Also, in data set [8], the Tmax worked out at 15 min. For the same compound, 22.3 µM corresponded to half-maximal inhibition in data set [15] (IC50). Also, testing at 40 µM at hERG (KCNH2) gave an inhibition of 65%.
